Data reported in ChEMBL document CHEMBL4229379, “Synthesis and structure-activity relationship of novel bisindole amidines active against MDR Gram-positive and Gram-negative bacteria” (Eur J Med Chem, 2018).
≈ marks a conversion by molar mass, not a printed value.

What was measured:
[1] = system: Staphylococcus epidermidis; experiment: Antibacterial activity against methicillin-sensitive Staphylococcus epidermidis ATCC 12228 after 18 hrs by CLSI broth microdilution method; assay type: functional; settings: ATCC 12228, 18 h
[2] = system: Staphylococcus epidermidis; experiment: Antibacterial activity against methicillin-resistant Staphylococcus epidermidis 12-8 after 18 hrs by CLSI broth microdilution method; assay type: functional; settings: 12-8, 18 h
[3] = system: Staphylococcus aureus; experiment: Antibacterial activity against methicillin-sensitive Staphylococcus aureus ATCC 29213 after 18 hrs by CLSI broth microdilution method; assay type: functional; settings: ATCC 29213, 18 h
[4] = system: Staphylococcus aureus; experiment: Antibacterial activity against methicillin-resistant Staphylococcus aureus 12-33 after 18 hrs by CLSI broth microdilution method; assay type: functional; settings: 12-33, 18 h
[5] = system: Enterococcus faecalis; experiment: Antibacterial activity against vancomycin-sensitive Enterococcus faecalis ATCC 29212 after 18 hrs by CLSI broth microdilution method; assay type: functional; settings: ATCC 29212, 18 h
[6] = system: Enterococcus faecalis; experiment: Antibacterial activity against vancomycin-resistant Enterococcus faecalis 09-9 after 18 hrs by CLSI broth microdilution method; assay type: functional; settings: 09-9, 18 h
[7] = system: Enterococcus faecium; experiment: Antibacterial activity against vancomycin-resistant Enterococcus faecium ATCC 700221 after 18 hrs by CLSI broth microdilution method; assay type: functional; settings: ATCC 700221, 18 h
[8] = system: Enterococcus faecium; experiment: Antibacterial activity against vancomycin-sensitive Enterococcus faecium 12-3 after 18 hrs by CLSI broth microdilution method; assay type: functional; settings: 12-3, 18 h
[9] = system: Escherichia coli; experiment: Antibacterial activity against extended-spectrum beta-lactamase deficient Escherichia coli ATCC 25922 after 18 hrs by CLSI broth microdilution method; assay type: functional; settings: ATCC 25922, 18 h
[10] = system: Escherichia coli; experiment: Antibacterial activity against extended-spectrum beta-lactamase harboring Escherichia coli 12-15 after 18 hrs by CLSI broth microdilution method; assay type: functional; settings: 12-15, 18 h
[11] = system: Klebsiella pneumoniae; experiment: Antibacterial activity against extended-spectrum beta-lactamase harboring Klebsiella pneumoniae ATCC 700603 after 18 hrs by CLSI broth microdilution method; assay type: functional; settings: Klebsiella pneumoniae, 700603, 18 h
[12] = system: Klebsiella pneumoniae; experiment: Antibacterial activity against new delhi metallo-beta-lactamase-1 harboring Klebsiella pneumoniae ATCC BAA-2146 after 18 hrs by CLSI broth microdilution method; assay type: functional; settings: ATCC BAA-2146, 18 h
[13] = system: Klebsiella pneumoniae; experiment: Antibacterial activity against extended-spectrum beta-lactamase harboring Klebsiella pneumoniae 12-8 after 18 hrs by CLSI broth microdilution method; assay type: functional; settings: 12-8, 18 h
[14] = system: Pseudomonas aeruginosa; experiment: Antibacterial activity against Pseudomonas aeruginosa ATCC 27853 after 18 hrs by CLSI broth microdilution method; assay type: functional; settings: ATCC 27853, 18 h
[15] = system: Acinetobacter calcoaceticus; experiment: Antibacterial activity against Acinetobacter calcoaceticus ATCC 19606 after 18 hrs by CLSI broth microdilution method; assay type: functional; settings: ATCC 19606, 18 h
[16] = system: Enterobacter cloacae; experiment: Antibacterial activity against Enterobacter cloacae ATCC 43560 after 18 hrs by CLSI broth microdilution method; assay type: functional; settings: ATCC 43560, 18 h
[17] = system: Proteus mirabilis; experiment: Antibacterial activity against Proteus mirabilis 12-6 after 18 hrs by CLSI broth microdilution method; assay type: functional; settings: 12-6, 18 h
[18] = Cytotoxicity against HEK293T cells assessed as reduction in cell viability after 48 hrs by MTS assay; assay type: cell-based, HEK-293T; settings: human
[19] = system: Staphylococcus epidermidis; experiment: Antibacterial activity against methicillin-sensitive Staphylococcus epidermidis 12-6 after 18 hrs by CLSI broth microdilution method; assay type: functional; settings: 12-6, 18 h
[20] = system: Staphylococcus aureus; experiment: Antibacterial activity against methicillin-resistant Staphylococcus aureus ATCC 33591 after 18 hrs by CLSI broth microdilution method; assay type: functional; settings: ATCC 33591, 18 h
[21] = system: Staphylococcus aureus; experiment: Antibacterial activity against methicillin-sensitive Staphylococcus aureus 15 after 18 hrs by CLSI broth microdilution method; assay type: functional; settings: Staphylococcus aureus, 15, 18 h
[22] = system: Staphylococcus aureus; experiment: Antibacterial activity against methicillin-sensitive Staphylococcus aureus 12-28 after 18 hrs by CLSI broth microdilution method; assay type: functional; settings: 12-28, 18 h
[23] = system: Enterococcus faecalis; experiment: Antibacterial activity against vancomycin-resistant Enterococcus faecalis ATCC 51299 after 18 hrs by CLSI broth microdilution method; assay type: functional; settings: ATCC 51299, 18 h
[24] = system: Enterococcus faecalis; experiment: Antibacterial activity against vancomycin-sensitive Enterococcus faecalis 12-5 after 18 hrs by CLSI broth microdilution method; assay type: functional; settings: 12-5, 18 h
[25] = system: Enterococcus faecium; experiment: Antibacterial activity against vancomycin-resistant Enterococcus faecium 12-1 after 18 hrs by CLSI broth microdilution method; assay type: functional; settings: 12-1, 18 h
[26] = system: Escherichia coli; experiment: Antibacterial activity against extended-spectrum beta-lactamase deficient Escherichia coli 1515 after 18 hrs by CLSI broth microdilution method; assay type: functional; settings: Escherichia coli, 1515, 18 h
[27] = system: Escherichia coli; experiment: Antibacterial activity against extended-spectrum beta-lactamase deficient Escherichia coli 12-14 after 18 hrs by CLSI broth microdilution method; assay type: functional; settings: 12-14, 18 h
[28] = system: Klebsiella pneumoniae; experiment: Antibacterial activity against extended-spectrum beta-lactamase deficient Klebsiella pneumoniae 7 after 18 hrs by CLSI broth microdilution method; assay type: functional; settings: Klebsiella pneumoniae, 7, 18 h
[29] = system: Klebsiella pneumoniae; experiment: Antibacterial activity against extended-spectrum beta-lactamase deficient Klebsiella pneumoniae 12-4 after 18 hrs by CLSI broth microdilution method; assay type: functional; settings: 12-4, 18 h
[30] = system: Pseudomonas aeruginosa; experiment: Antibacterial activity against Pseudomonas aeruginosa PAO1 after 18 hrs by CLSI broth microdilution method; assay type: functional; settings: PAO1, 18 h
[31] = system: Pseudomonas aeruginosa; experiment: Antibacterial activity against Pseudomonas aeruginosa 12-16 after 18 hrs by CLSI broth microdilution method; assay type: functional; settings: 12-16, 18 h
[32] = system: Klebsiella aerogenes; experiment: Antibacterial activity against Enterobacter aerogenes ATCC 13048 after 18 hrs by CLSI broth microdilution method; assay type: functional; settings: ATCC 13048, 18 h
[33] = system: Serratia marcescens; experiment: Antibacterial activity against Serratia marcescens ATCC 21074 after 18 hrs by CLSI broth microdilution method; assay type: functional; settings: ATCC 21074, 18 h
[34] = system: Providencia rettgeri; experiment: Antibacterial activity against Providencia rettgeri ATCC 31052 after 18 hrs by CLSI broth microdilution method; assay type: functional; settings: ATCC 31052, 18 h
[35] = system: Proteus vulgaris; experiment: Antibacterial activity against Proteus vulgaris ATCC 29905 after 18 hrs by CLSI broth microdilution method; assay type: functional; settings: ATCC 29905, 18 h
[36] = system: Stenotrophomonas maltophilia; experiment: Antibacterial activity against Stenotrophomonas maltophilia ATCC 13636 after 18 hrs by CLSI broth microdilution method; assay type: functional; settings: ATCC 13636, 18 h
[37] = system: Citrobacter freundii; experiment: Antibacterial activity against Citrobacter freundii ATCC 43864 after 18 hrs by CLSI broth microdilution method; assay type: functional; settings: ATCC 43864, 18 h

Structure (SMILES)	MIC [1] [mg/L]	MIC [2] [mg/L]	MIC [3] [mg/L]	MIC [4] [mg/L]	MIC [5] [mg/L]	MIC [6] [mg/L]	MIC [7] [mg/L]	MIC [8] [mg/L]	MIC [9] [mg/L]	MIC [10] [mg/L]	MIC [11] [mg/L]	MIC [12] [mg/L]	MIC [13] [mg/L]	MIC [14] [mg/L]	MIC [15] [mg/L]	MIC [16] [mg/L]	MIC [17] [mg/L]	CC50 at 48 h [18] [mg/L]	MIC [19] [mg/L]	MIC [20] [mg/L]	further results
CC(C)NC(=N)c1ccc2cc(-c3cncc(-c4cc5ccc(C(=N)NC(C)C)cc5[nH]4)c3)[nH]c2c1	8 (≈ 16.7 µM)	8 (≈ 16.7 µM)	8 (≈ 16.7 µM)	32 (≈ 67 µM)	> 64	> 64	> 64	> 64	> 64	> 64	> 64	> 64	> 64	> 64	> 64	> 64	> 64	26.5 (≈ 55.4 µM)	2 (≈ 4.19 µM)	16 (≈ 33.5 µM)	MIC [21]: 16 mg/L (≈ 33.5 µM); MIC [22]: 16 mg/L (≈ 33.5 µM); MIC [23]: > 64 mg/L; MIC [24]: > 64 mg/L; MIC [25]: > 64 mg/L; MIC [26]: > 64 mg/L; MIC [27]: > 64 mg/L; MIC [28]: > 64 mg/L; MIC [29]: > 64 mg/L; MIC [30]: > 64 mg/L; MIC [31]: > 64 mg/L; MIC [32]: > 64 mg/L; MIC [33]: > 64 mg/L; MIC [34]: > 64 mg/L; MIC [35]: > 64 mg/L; MIC [36]: > 64 mg/L; MIC [37]: > 64 mg/L
CN1CCC2(CC1)CCN(C(=N)c1ccc3cc(-c4ccc(-c5cc6ccc(C(=N)N7CCC8(CCN(C)CC8)C7)cc6[nH]5)cc4)[nH]c3c1)C2	2 (≈ 3 µM)	4 (≈ 6 µM)	8 (≈ 12 µM)	8 (≈ 12 µM)	16 (≈ 24 µM)	16 (≈ 24 µM)	16 (≈ 24 µM)	16 (≈ 24 µM)	8 (≈ 12 µM)	16 (≈ 24 µM)	64 (≈ 96 µM)	16 (≈ 24 µM)	16 (≈ 24 µM)	32 (≈ 48 µM)	> 128	> 128	> 128	28.4 (≈ 42.7 µM)	8 (≈ 12 µM)	8 (≈ 12 µM)	MIC [21]: 8 mg/L (≈ 12 µM); MIC [22]: 16 mg/L (≈ 24 µM); MIC [23]: 16 mg/L (≈ 24 µM); MIC [24]: 128 mg/L (≈ 192 µM); MIC [25]: 16 mg/L (≈ 24 µM); MIC [26]: 8 mg/L (≈ 12 µM); MIC [27]: 16 mg/L (≈ 24 µM); MIC [28]: 8 mg/L (≈ 12 µM); MIC [29]: 16 mg/L (≈ 24 µM); MIC [30]: 64 mg/L (≈ 96 µM); MIC [31]: 128 mg/L (≈ 192 µM); MIC [32]: 16 mg/L (≈ 24 µM); MIC [33]: > 128 mg/L; MIC [34]: > 128 mg/L; MIC [35]: 128 mg/L (≈ 192 µM); MIC [36]: > 128 mg/L; MIC [37]: 16 mg/L (≈ 24 µM)
CCC(CC)NC(=N)c1ccc2cc(-c3ccc(-c4cc5ccc(C(=N)NC(CC)CC)cc5[nH]4)cc3)[nH]c2c1	0.5 (≈ 0.939 µM)	0.5 (≈ 0.939 µM)	1 (≈ 1.88 µM)	1 (≈ 1.88 µM)	2 (≈ 3.75 µM)	4 (≈ 7.51 µM)	2 (≈ 3.75 µM)	2 (≈ 3.75 µM)	8 (≈ 15 µM)	8 (≈ 15 µM)	16 (≈ 30 µM)	8 (≈ 15 µM)	8 (≈ 15 µM)	16 (≈ 30 µM)	16 (≈ 30 µM)	8 (≈ 15 µM)	16 (≈ 30 µM)	3.42 (≈ 6.41 µM)	0.5 (≈ 0.939 µM)	1 (≈ 1.88 µM)	MIC [21]: 2 mg/L (≈ 3.75 µM); MIC [22]: 2 mg/L (≈ 3.75 µM); MIC [23]: 4 mg/L (≈ 7.51 µM); MIC [24]: 4 mg/L (≈ 7.51 µM); MIC [25]: 2 mg/L (≈ 3.75 µM); MIC [26]: 8 mg/L (≈ 15 µM); MIC [27]: 8 mg/L (≈ 15 µM); MIC [28]: 8 mg/L (≈ 15 µM); MIC [29]: 8 mg/L (≈ 15 µM); MIC [30]: 64 mg/L (≈ 120 µM); MIC [31]: 32 mg/L (≈ 60.1 µM); MIC [32]: 8 mg/L (≈ 15 µM); MIC [33]: 32 mg/L (≈ 60.1 µM); MIC [34]: 8 mg/L (≈ 15 µM); MIC [35]: 8 mg/L (≈ 15 µM); MIC [36]: 16 mg/L (≈ 30 µM); MIC [37]: 8 mg/L (≈ 15 µM)
CCNC(=N)c1ccc2cc(-c3ccc(-c4cc5ccc(C(=N)NCC)cc5[nH]4)cc3)[nH]c2c1	0.5 (≈ 1.11 µM)	1 (≈ 2.23 µM)	1 (≈ 2.23 µM)	1 (≈ 2.23 µM)	1 (≈ 2.23 µM)	2 (≈ 4.46 µM)	1 (≈ 2.23 µM)	2 (≈ 4.46 µM)	8 (≈ 17.8 µM)	16 (≈ 35.7 µM)	32 (≈ 71.3 µM)	32 (≈ 71.3 µM)	32 (≈ 71.3 µM)	8 (≈ 17.8 µM)	64 (≈ 143 µM)	16 (≈ 35.7 µM)	> 64	4.1 (≈ 9.14 µM)	1 (≈ 2.23 µM)	1 (≈ 2.23 µM)	MIC [21]: 1 mg/L (≈ 2.23 µM); MIC [22]: 1 mg/L (≈ 2.23 µM); MIC [23]: 2 mg/L (≈ 4.46 µM); MIC [24]: 2 mg/L (≈ 4.46 µM); MIC [25]: 1 mg/L (≈ 2.23 µM); MIC [26]: 32 mg/L (≈ 71.3 µM); MIC [27]: 16 mg/L (≈ 35.7 µM); MIC [28]: 16 mg/L (≈ 35.7 µM); MIC [29]: 16 mg/L (≈ 35.7 µM); MIC [30]: 32 mg/L (≈ 71.3 µM); MIC [31]: 32 mg/L (≈ 71.3 µM); MIC [32]: 16 mg/L (≈ 35.7 µM); MIC [33]: 32 mg/L (≈ 71.3 µM); MIC [34]: 32 mg/L (≈ 71.3 µM); MIC [35]: 64 mg/L (≈ 143 µM); MIC [36]: 8 mg/L (≈ 17.8 µM); MIC [37]: 16 mg/L (≈ 35.7 µM)
